ChEMBL document CHEMBL5356930, “Small-molecule inhibitors of bacterial-producing metallo-β-lactamases: insights into their resistance mechanisms and biochemical analyses of their activities” (RSC Med Chem, 2023)
pIC50, pKd, pKi: −log10 of the molar value. ≈ marks a conversion by molar mass, not a printed value. Each block holds one compound with its values, some of them ahead of it.

Columns and labels:
Beta-lactamase VIM-1 = Beta-lactamase VIM-1 (Bacteria, UniProt Q8GDC1); test: Binding affinity to bacterial Metallo-beta-lactamase VIM-1 (unknown origin) assessed as dissociation constant
Klebsiella pneumoniae [1] = test: Antibacterial activity against VIM-1-producing Klebsiella pneumoniae NCTC 13440 clinical isolate by CLSI-based broth microdilution method; format: functional
Escherichia coli [2] = test: Antibacterial activity against IMP-type producing Escherichia coli clinical isolate in presence of meropenem by CLSI-based broth microdilution method; format: functional
[3] = target: T1, Metallo-beta-lactamase VIM-2 (Pseudomonas aeruginosa, UniProt D1MEN9); test: Inhibition of N-terminal His-tagged recombinant Pseudomonas aeruginosa Metallo-beta-lactamase VIM-2 expressed in Escherichia coli BL21 star cells using nitrocefin as substrate by absorbance based assay
Escherichia coli [4] = test: Antibacterial activity against IMP-type producing Escherichia coli clinical isolate in presence of imipenem by CLSI-based broth microdilution method; format: functional
Escherichia coli [5] = test: Antibacterial activity against NDM-1-producing Escherichia coli assessed as fold reduction in MIC in presence of meropenem CLSI-based broth microdilution method; format: functional
[6] = Inhibition of His-tagged recombinant bacterial Metallo-beta-lactamase IMP-1 (unknown origin) expressed in Escherichia coli BL21 star cells; parameters: species or system Bacteria
Klebsiella pneumoniae [7] = test: Antibacterial activity against NDM-1-producing Klebsiella pneumoniae clinical isolate assessed as fold reduction in MIC in presence of meropenem CLSI-based broth microdilution method; format: functional
[8] = Cytotoxicity against human HepG2 cells incubated for 24 hrs by CellTiter-Glo assay; format: toxicity, cell-based
[9] = target: Beta-lactamase VIM-1 (Bacteria) (UniProt Q8GDC1); test: Inhibition of bacterial Metallo-beta-lactamase VIM-1 (unknown origin) at 100 uM relative to control
[10] = Inhibition of bacterial Metallo-beta-lactamase VIM-2 (unknown origin); parameters: species or system Bacteria
Bacteria = test: Inhibition of bacterial Metallo-beta-lactamase VIM-5 (unknown origin) at 100 uM relative to control
[11] = target: T2, Metallo-beta-lactamase type 2 (Bacteria, UniProt C7C422); test: Inhibition of bacterial NDM-1 (unknown origin) using imipenem as substrate by Agilent UV8453 Spectrometric analysis
L929 = test: Cytotoxicity against mouse L929 cells at 50 uM incubated for 48 hrs by CCK8 assay relative to control; format: toxicity, cell-based; details: l929, 48 h
Acinetobacter baumannii = test: Antibacterial activity against MBL-producing Acinetobacter baumannii assessed as diameter of inhibition zone in presence of imipenem; format: functional
[12] = Inhibition of Acinetobacter baumannii Metallo-beta-lactamase IMP-1
Klebsiella pneumoniae [13] = test: Synergistic activity against NDM-1/VIM-1-producing Klebsiella pneumoniae MS5674 assessed as fractional inhibition concentration index in presence of meropenem by checkerboard assay; format: functional
HeLa = test: Cytotoxicity against human HeLa cells at >1000 uM incubated for 24 hrs by Celltiter assay relative to control; format: toxicity, cell-based
[14] = Binding affinity to bacterial Metallo-beta-lactamase IMP-1 (unknown origin) expressed in Escherichia coli BL21(DE3) cells assessed as inhibition constant; parameters: species or system Bacteria
Escherichia coli [15] = test: Synergistic activity against IMP-1 producing engineered Escherichia coli NUBL-24 assessed as fractional inhibition concentration index incubated for 16 to 20 hrs in presence of meropenem by CLSI-based microdilution method; format: functional; details: time 16-20 hrs
[16] = Binding affinity to bacterial Metallo-beta-lactamase VIM-2 (unknown origin) expressed in Escherichia coli BL21(DE3) cells assessed as inhibition constant; parameters: species or system Bacteria
Escherichia coli [17] = test: Synergistic activity against IMP-1 producing Escherichia coli NUBL-24 infected in CD1 mouse assessed as death rescue at 100 mg/kg, ip measured for 7 days in presence of meropenem relative to control; format: functional; details: time 7 day
Beta-lactamase NDM-1 = Beta-lactamase NDM-1 (Escherichia coli, UniProt E5KIY2); test: Inhibition of NDM-1 in Escherichia coli assessed as reduction in imipenem hydrolytic activity
Enterobacter sp. = test: Antibacterial activity against IMP-type producing Enterobacter sp. 42713 clinical isolate in presence of imipenem; format: functional
[18] = Cytotoxicity against mouse L929 cells assessed as cell viability >533 uM relative to control; format: toxicity, cell-based; details: read-out: Activity
[19] = target: T1, Metallo-beta-lactamase VIM-2; test: Binding affinity to Metallo-beta-lactamase VIM-2 assessed as inhibition constant
Proteus mirabilis = test: Antibacterial activity against IMP-type producing Proteus mirabilis UNC KPC 170 clinical isolate in presence of imipenem; format: functional
[20] = Binding affinity to bacterial Metallo-beta-lactamase IMP-1 (unknown origin) assessed as inhibition constant; parameters: species or system Bacteria
Klebsiella pneumoniae [21] = test: Antibacterial activity against IMP-type producing Klebsiella pneumoniae LC 82 clinical isolate in presence of imipenem; format: functional
[22] = Cytotoxicity against human HEK293 cells assessed as cell viability >533 uM relative to control; format: toxicity, cell-based; details: read-out: Activity
[23] = target: T2, Metallo-beta-lactamase type 2; test: Binding affinity to bacterial NDM-1 (unknown origin) assessed as inhibition constant; details: for pKi: read-out: Ki
[24] = Inhibition of Acinetobacter baumannii recombinant NDM-1 using nitrocefin as substrate preincubated for 10 mins followed by substrate addition by spectrophotometric analysis
MCF7 = test: Cytotoxicity against human MCF7 cells at 12.5 uM relative to control; format: toxicity, cell-based; details: mcf7, 12.5 µM
[25] = target: T2, Metallo-beta-lactamase type 2; test: Inhibition of bacterial NDM-1 (unknown origin) using imipenem as substrate
[26] = Cytotoxicity against human HeLa cells; format: toxicity, cell-based
[27] = target: T2, Metallo-beta-lactamase type 2; test: Inhibition of bacterial NDM-1 (unknown origin)
[28] = Inhibition of bacterial Metallo-beta-lactamase GIM-1 using nitrocefin as substrate; parameters: species or system Bacteria
[29] = Cytotoxicity against human HeLa cells incubated for 24 hrs by PrestoBlue reagent based assay; format: toxicity, cell-based

T2 sequence (C7C422 whole entry): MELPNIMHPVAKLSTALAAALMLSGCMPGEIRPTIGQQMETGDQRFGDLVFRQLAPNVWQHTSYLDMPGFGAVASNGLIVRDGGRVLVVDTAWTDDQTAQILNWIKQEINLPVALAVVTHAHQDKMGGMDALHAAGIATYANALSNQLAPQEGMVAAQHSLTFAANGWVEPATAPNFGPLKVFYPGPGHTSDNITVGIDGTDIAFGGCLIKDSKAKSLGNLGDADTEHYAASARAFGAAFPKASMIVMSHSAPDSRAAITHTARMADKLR
Beta-lactamase NDM-1, sequence (E5KIY2 whole entry): as the sequence (C7C422 whole entry) above

- pKd (Beta-lactamase VIM-1): > 6.06
SMILES: O=C1C(SCCCS)CCN1c1ccccc1 (configuration not stated)

- MIC50 (Klebsiella pneumoniae [1]): 0.06 µg/mL (≈ 0.213 µM)
- MIC (Escherichia coli [2]): 0.03 µg/mL
- pIC50 [3]: 4.49
- MIC (Escherichia coli [4]): 0.25 µg/mL
- pIC50 [6]: 6.37
SMILES: Nc1ccc(-c2ccn(S(N)(=O)=O)c2C(=O)O)cn1
- fold change (FC) (Escherichia coli [5]): 32
- fold change (FC) (Klebsiella pneumoniae [7]): 32
- CC50 at 24 h [8]: > 256 µg/mL

- inhibition [9]: 23%
- pIC50 [10]: 4.42
- inhibition (Bacteria): 33%
SMILES: Brc1ccc(-c2nnc3n2CCCS3)cc1

- pIC50 [11]: 7.42
SMILES: S=C(N/N=C/c1ccccn1)Nc1ccc(Cl)cc1
- Activity (L929): > 60%

- pIC50 [12]: 4.08
SMILES: Oc1ccc(Br)cc1/C=N/c1cccnc1/N=C/c1cc(Br)ccc1O
- diameter of the inhibition zone (DIZ) (Acinetobacter baumannii): 25 mm

- pIC50 [12]: 4.03
SMILES: Oc1ccccc1/C=N/c1cccnc1/N=C/c1ccccc1O
- diameter of the inhibition zone (DIZ) (Acinetobacter baumannii): 23 mm

SMILES: CCc1c(C(=O)O)c(S(N)(=O)=O)c(CC)n1C
- fractional inhibitory concentration index (FICI) (Klebsiella pneumoniae [13]): 0.05
- Activity (HeLa): > 50%
- pKi [14]: 6.59
- fractional inhibitory concentration index (FICI) (Escherichia coli [15]): 0.26
- pKi [16]: 7.70
- Activity (Escherichia coli [17]): 100%

SMILES: CCOC(=O)[C@]1(CS)N[C@@H](C(=O)O)C(C)(C)S1
- pIC50 (Beta-lactamase NDM-1): 5.00
- MIC (Enterobacter sp.): 8 µg/mL
- viability [18]: 85%
- pKi [19]: 5.72
- MIC (Proteus mirabilis): 8 µg/mL
- pKi [20]: 5.70
- MIC (Klebsiella pneumoniae [21]): 0.5 µg/mL
- viability at 533 µM [22]: 85%
- pKi [23]: 6.22

- pIC50 [24]: 4.62
SMILES: CC1=C(CO)C(=O)O[C@@H]([C@@H](C)[C@H]2CC[C@H]3[C@@H]4C[C@H]5O[C@]56[C@@H](O)C=CC(=O)[C@]6(C)[C@H]4CC[C@]23C)C1 [WITHAFERIN A]

- pIC50 [25]: 7.70
- pKi [23]: 5.23
SMILES: O=S(=O)(Nc1cccc2cccnc12)c1ccc(Cl)cc1
- Activity (MCF7): < 60%

- pIC50 [27]: 6.52
- Ki [23]: 440 µM
SMILES: CN1CCN(C(=S)N/N=C/c2ccccc2O)CC1
- IC50 [26]: > 64 µg/mL

SMILES: COP(=O)(CCSC(C)=O)N(C)Cc1ccccn1 (racemic)
- pIC50 [28]: 3.96
- IC50 at 24 h [29]: > 500 µM
